Reference: patent US7468391B2, “Methods for treating retinoid responsive disorders using selective inhibitors of CYP26A and CYP26B” (Allergan, Inc., priority 2003, dated 2008)
Several values for one entry are separate records, joined by “and”; a condition that tells them apart may be missing. Identical values can stand only once. Entries after “also recorded” stand apart in the source; their conditions may differ.

Experiments:
[1] = tested on: human patients; details: Kuijpers, et al. (1998); cited from earlier work
[2] = tested on: hacyp26a; test: Taqman RT-PCR of CYP26A expression in hamster flank organ sebaceous gland; assay type: in vivo
Experimental: (§1) Because CYP26 functions in cells to reduce retinoic acid receptor signaling, the effect of inhibiting CYP26 to increase retinoic acid receptor signaling, and thereby reduce differentiation of hamster sebaceous gland differentiation, was examined. The expression of CYP26A and CYP26B in hamster flank organ sebaceous gland was determined using Taqman RT-PCR. Hamsters were treated as described above and sacrificed at various time points (1 day to 3 weeks). The flank organs were excised and placed under a dissecting microscope. Sebaceous glands were removed and put into liquid nitrogen immediately. RNAs were isolated from the glands using Trizol reagents (Invitrogen; San Diego, Calif.) as described by the manufacturer. The RNAs were treated with DNase to remove contaminating genomic DNAs and further purified with the DNA-free kit (Ambion; Austin, Tex.). Quantitative RT-PCR was performed on an ABI 7700 machine using Invitrogen's Platinum qRT-PCR kit with CYP26-specific primers and probes.

[3] = assay type: in vivo; details: hamster, in vivo
Experimental: (§2) For the hamster model system, male golden syrian hamsters were fed LabDiet#5002 rodent diet and housed individually on a 14/10 hr light/dark cycle. For treatment, the animals were randomized according to body weight and they were also weighed at each treatment so that the drug doses could be adjusted accordingly. The animals were treated daily by oral gavage, 6 days/week for 4 weeks. At the end of treatments, the animals were sacrificed by carbon dioxide inhalation. The flank organs were then excised and spread on a small piece of index card which was placed in a histology cassette for fixation in 10% buffered formaldehyde. The specimen was divided into 5 equally spaced portions to make paraffin blocks and one 5-micrometer H&E sections was prepared from each block. The two sections that contained the most sebaceous glands were used to determine the average acini area of the flank organ. A video camera attached to a standard microscope with the 4× objective was used to capture the images of the sebaceous glands. Computer programs Videoshop and NIH Image 1.63 were used to quantify the acini areas. All the recognizable sebaceous glands in the two sections were analyzed and the means were derived for comparison among various treatments. In all studies, blood samples were also collected for determining the levels of serum triglyceride using a triglyceride GPO Trinder kit from Sigma Chemicals (St. Louis, Mo.).
Experimental results showing the effect of various retinoid compounds on differentiation of sebaceous gland in […] flank organ were generated.

[4] = tested on: hacyp26b; test: Taqman RT-PCR of CYP26B expression in hamster flank organ sebaceous gland; assay type: in vivo
Experimental: as §1

[5] = tested on: hamster flank organ sebaceous gland; test: Hamster flank organ sebaceous gland differentiation (model for acne); assay type: in vivo, male golden syrian hamsters; details: oral gavage, 6 days/week for 4 weeks
Experimental: Differentiation of hamster flank organ sebaceous gland is a model system for development of acne. To determine the effectiveness of selective CYP26B inhibitors for treating acne, such inhibitors were tested in this model system. To confirm that this model system can predict the effectiveness of a compound in reducing acne, 13-cis retinoic acid (acutane) was used as a positive control.
as §2

SMILES | effect of treatment in human patients [1] | hacyp26a Ct ([2]; HFO-9, 1w, listed as 13cisRA) | hacyp26a Relative to Veh ([2]; HFO-9, 1w, listed as 13cisRA) | hacyp26a Ct ([2]; HFO-9, 2w) | hacyp26a Relative to Veh ([2]; HFO-9, 2w) [×] | hacyp26a Ct ([2]; HFO-9, 3w, listed as 13cisRA) | hacyp26a Ct ([2]; HFO-9, 4d) | hacyp26a Relative to Veh ([2]; HFO-9, 4d) [×] | CYP26A expression in hamster flank sebaceous gland ([2]; Table 2) | toxicity [3] | hacyp26b Ct ([4]; HFO-9, 1w, listed as 13cisRA) | hacyp26b Ct ([4]; HFO-9, 2w) | hacyp26b Relative to veh ([4]; HFO-9, 2w) [×] | hacyp26b Ct ([4]; HFO-9, 3w, listed as 13cisRA) | hacyp26b Relative to veh ([4]; HFO-9, 3w, listed as 13cisRA) | hacyp26b Ct ([4]; HFO-9, 4d) | hacyp26b Relative to veh ([4]; HFO-9, 4d) [×] | CYP26B expression in hamster flank sebaceous gland ([4]; Table 2) | sebaceous gland differentiation in hamster flank organ [5]
Clc1cccc(C(c2ccc3[nH]cnc3c2)n2ccnc2)c1 (stereo not shown) [liarozole] | amelioration of psoriasis |  |  |  |  |  |  |  |  |  |  |  |  |  |  |  |  |  | 
CC1=C(/C=C/C(C)=C/C=C/C(C)=C\C(=O)O)C(C)(C)CCC1 [13-cis retinoic acid] |  | 29.8 and 29.6 | 12.1× and 13.9× | 30.1 | 9.8 | 33 and 31.9 | 28.1 | 22.6 | induced | lower toxicity levels | 30.5 and 31.8 | 34.1 | 0.6 | 36.7 and 35.7 | 0.1× and 0.2× | 30.6 | 13 | induced | effective in reducing sebaceous gland differentiation; also recorded: appeared to be more effective
